Patent US9550763B2, “Heterocyclic ring and carbocyclic derivative” (Shionogi & Co., Ltd., priority 2012, dated 2017)

Key:
human P2X3 receptor [1] = target: T1, human P2X3 receptor (Homo sapiens (Human), UniProt P56373); assay: Evaluation of human P2X3 receptor inhibitory activity (Test Example 1-2, FLIPR 384, 384-well, 150 nM ATP); assay type: cell-based
Protocol: Stably expressing cell line (C6BU-1 cell transfected with human P2X3 receptor gene (GenBank accession number Y07683) was used. The cells were seeded in a 384-well microtiter plate at a concentration of 3000 cells/well and cultured in the medium (7.0% fetal bovine serum, 7.0% horse serum, 1% antibiotic and antifungal in DMEM) for one day at 37° C. under 5% carbon dioxide atmosphere. The medium was replaced with 4 μM Fluo-3-AM solution (20 mM HEPES, […], 5.27 mM KCl, 0.9 mM MgCl2, 1.26 mM CaCl2, 5.6 mM D-glucose, 2.5 mM probenecid, 0.5% BSA, and 0.04% Pluronic F-127, pH 7.5) and incubated at 37° C. under 5% dioxide carbon atmosphere for one hour. The plate was washed with washing buffer (20 mM HEPES, 137 mM NaCl, 5.27 mM KCl, 0.9 mM MgCl2, 1.26 mM CaCl2, 5.6 mM D-glucose, 2.5 mM probenecid, pH7.5), and each well was added with 20 μL of this buffer. The plate was placed in High-Throughput Screening System FLIPR 384 (Molecular Device Co.). Measurement of fluorescence intensity by FLIPR 384 was started, and 20 μL of DMSO solutions containing different concentrations of the test compound as prepared by dilution with dilution buffer (20 mM HEPES, 137 mM NaCl, 5.27 mM KCl, 0.9 mM MgCl2, 1.26 mM CaCl2, 5.6 mM D-glucose, 2.5 mM probenecid, 0.1% Pluronic F-127, pH 7.5) were dispensed to each well through the built-in automatic dispenser. Five minutes after, 150 nM ATP solution (25 μL) prepared by dilution with the dilution buffer was dispensed through the built-in automatic dispenser, and the measurement of fluorescence intensity was continued for 4 min. For each well, the specific maximum fluorescence intensity was calculated as the ratio of the maximum fluorescence intensity after addition of the ATP solution to the fluorescence intensity at the starting of the measurement. The 50% inhibitory concentration (IC50) was calculated under the assumption that the specific maximum fluorescence intensity without test compound is 0% inhibition and that the specific maximum fluorescence intensity when the dilution buffer was added in place of ATP solution is 100% inhibition, to evaluate the inhibitory activity of the test compound. The specific maximum fluorescence intensity and IC50 were calculated using Spotfire (Science & Technology Systems, Inc.)
The data of the compounds I-001 to I-300 are the results by the method mentioned in Test Example 1-1, and the data of the compounds I-301 to I-483 are the results by the method mentioned in Test Example 1-2.

human P2X3 receptor [2] = target: T1, human P2X3 receptor; assay: Evaluation of human P2X3 receptor inhibitory activity (Test Example 1-1, FDSS 3000, 96-well, 50 nM ATP); assay type: cell-based; details: human P2X3 receptor in C6BU-1 cells; Test Example 1-1 (compounds I-001 to I-300)
In short: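 C6BU-1 cells stably expressing human P2X3, loaded with 4 μM Fluo-3-AM (pH 7.5), preincubated 5 min with compound before 50 nM ATP challenge; fluorescence followed 4 min on FDSS 3000. IC50 derived from peak/baseline fluorescence ratio, no-compound as 0% and buffer-instead-of-ATP as 100% inhibition.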

[3] = human P2X3 receptor in C6BU-1 cells, Test Example 1-2 (compounds I-301 to I-483), read-out: P2X3 IC50
[4] = C6BU-1 cell transfected with human P2X3 receptor gene, method of Test Example 1-2 (compounds I-301 to I-483), read-out: IC50 (human P2X3 receptor inhibitory activity)

T1 sequence (P56373 whole entry): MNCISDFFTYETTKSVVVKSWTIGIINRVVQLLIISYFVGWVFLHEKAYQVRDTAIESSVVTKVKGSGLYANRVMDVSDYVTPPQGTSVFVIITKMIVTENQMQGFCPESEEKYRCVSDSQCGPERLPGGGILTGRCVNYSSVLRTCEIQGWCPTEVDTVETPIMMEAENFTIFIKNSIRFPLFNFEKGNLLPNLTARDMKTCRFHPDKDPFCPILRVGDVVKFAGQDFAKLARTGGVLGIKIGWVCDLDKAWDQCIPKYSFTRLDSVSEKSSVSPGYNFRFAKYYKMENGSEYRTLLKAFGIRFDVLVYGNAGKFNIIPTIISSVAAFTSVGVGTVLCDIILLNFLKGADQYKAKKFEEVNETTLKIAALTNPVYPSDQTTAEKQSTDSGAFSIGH

Row | Structure (SMILES) | IC50 (human P2X3 receptor [1]; [3]) | also measured
1 | Cc1ccccc1Cn1cc(C(=O)NC2CCOCC2)c(=O)nc1Nc1ccc(Oc2cccc(F)n2)cc1 [Compound I-357] | 781 nM | 
2 | Cc1nc(Nc2cc(=O)n(CCCC(=O)O)c(=O)n2Cc2ccc(Cl)cc2)ccc1Oc1ccc(F)cn1 [Compound I-361] | 32 nM | 
3 | CC(c1ccc(F)cc1)n1cc(C(=O)NC2CCOCC2)c(=O)nc1Nc1ccc(Oc2cccc(F)n2)cc1 (stereo not shown) [Compound I-352] | 369 nM | 
4 | COCCn1c(=O)cc(Nc2ccc(Oc3ccc(F)nc3)cc2)n(Cc2ccc(Cl)cc2)c1=O [Compound I-342] | 10 nM | 
5 | O=C(O)c1cccc(Oc2ccc(/N=c3\[nH]ccc(=O)n3Cc3ccc(Cl)cc3)cc2)n1 [Compound I-448] |  | IC50 (human P2X3 receptor [1]; [4]): < 30000 nM
6 | CNC(=O)CNC(=O)c1cn(Cc2ccc(Cl)cc2)c(Nc2ccc(Oc3cccc(F)n3)cc2)nc1=O [Compound I-430] | 83 nM | 
7 | NC(=O)[C@H](CO)NC(=O)c1cn(Cc2ccc(Cl)cc2)c(Nc2ccc(Oc3cccc(F)n3)cc2)nc1=O [Compound I-375] | 4 nM | 
8 | Cc1nc(CNC(=O)c2cn(Cc3ccc(Cl)cc3)c(Nc3ccc(Oc4cccc(F)n4)cc3)nc2=O)no1 [Compound I-392] | 128 nM | 
9 | CCCn1c(=O)c(F)c(Nc2ccc(Oc3cccc(C(=O)O)c3)cc2)n(Cc2ccc(Cl)cc2)c1=O [Compound I-303] | 109 nM | 
10 | O=C(NCC1CCOC1)c1cn(Cc2ccc(Cl)cc2)c(Nc2ccc(Oc3cccc(F)n3)cc2)nc1=O (stereo not shown) [Compound I-396] | 25 nM | 
11 | CC(=O)NCCNC(=O)c1cn(Cc2ccc(Cl)cc2)c(Nc2ccc(Oc3cccc(F)n3)cc2)nc1=O [Compound I-370] | 384 nM | 
12 | CN(C)c1ccc(Nc2ccc(Oc3ccc(F)cn3)cc2)c(Cc2ccc(Cl)cc2)c1 [Compound I-464, 1-(4-chlorobenzyl)-3-dimethylamino-6-[4-(5-fluoro-2-pyridyloxy)phenylamino]benzene] |  | IC50 (human P2X3 receptor [1]; [4]): < 30000 nM
13 | COC(=O)[C@H](CO)NC(=O)c1c[nH]/c(=N\c2ccc(Oc3ccon3)cc2)n(Cc2ccc(Cl)cc2)c1=O [Compound I-446] | 47 nM | 
14 | C[C@@H](NC(=O)c1cn(Cc2ccc(Cl)cc2)c(Nc2ccc(Oc3cccc(F)n3)cc2)nc1=O)C(N)=O [Compound I-443] | 36 nM | 
15 | C=CCNC(=O)c1c[nH]/c(=N\c2ccc(Oc3ccon3)cc2)n(Cc2ccc(Cl)cc2)c1=O [Compound I-450] | 21 nM | 
16 | O=C(NC1CCNC1=O)c1cn(Cc2ccc(Cl)cc2)c(Nc2ccc(Oc3cccc(F)n3)cc2)nc1=O (stereo not shown) [Compound I-389] | 10 nM | 
17 | CCC(=O)Nc1c[nH]/c(=N\c2ccc(Oc3ccc(C(F)(F)F)nn3)cc2)n(Cc2ccc(Cl)cc2)c1=O [Compound I-411] | 10 nM | 
18 | COC(=O)c1nnc(-c2c[nH]/c(=N\c3ccc(Oc4ccon4)cc3)n(Cc3ccc(Cl)cc3)c2=O)o1 [Compound I-438] | 109 nM | 
19 | CCCn1c(=O)cc(Nc2ccc(Oc3cccc(C(=O)O)c3)c(C)n2)n(Cc2ccc(C)cc2)c1=O [Compound I-474] | 5 nM | 
20 | CCc1c[nH]c2cc(Nc3ncc(NC(=O)C4CCOCC4)c(=O)n3Cc3ccc(Cl)cc3)ccc12 [Compound I-416] | 406 nM | 
21 | Cc1noc(-c2c[nH]/c(=N\c3ccc(Oc4cccc(C#N)n4)cc3)n(Cc3ccc(Cl)cc3)c2=O)n1 [Compound I-310] | 16 nM | 
22 | CCCc1c[nH]/c(=N\c2ccc(Oc3cccc(C(=O)O)n3)cc2)n(Cc2ccc(Cl)cc2)c1=O [Compound I-436] | 13 nM | 
23 | CC(C)c1c[nH]/c(=N\c2ccc(Oc3ncc(C(=O)O)s3)cc2)n(Cc2ccc(Cl)cc2)c1=O [Compound I-412] | 9 nM | 
24 | CC(=O)NNC(=O)c1c[nH]/c(=N\c2ccc(Oc3ccon3)cc2)n(Cc2ccc(Cl)cc2)c1=O [Compound I-347] | 152 nM | 
25 | O=C(NCC1CCCC1)c1cn(Cc2ccc(Cl)cc2)c(Nc2ccc(Oc3cccc(F)n3)cc2)nc1=O [Compound I-393] | 110 nM | 
26 | Cn1nccc1NC(=O)c1cn(Cc2ccc(Cl)cc2)c(Nc2ccc(Oc3cccc(F)n3)cc2)nc1=O [Compound I-391] | 30 nM | 

Row | Structure (SMILES) | IC50 (human P2X3 receptor [1]; [3]) | also measured
27 | CCCn1c(=O)c(F)c(Nc2ccc(Oc3cccc(C#N)n3)c(C)n2)n(Cc2ccc(Cl)cc2)c1=O [Compound I-301] | 163 nM | 
28 | Cc1cc(NC(=O)c2cn(Cc3ccc(Cl)cc3)c(Nc3ccc(Oc4cccc(F)n4)cc3)nc2=O)no1 [Compound I-371] | 80 nM | 
29 | CC(C)c1c[nH]/c(=N\c2ccc(Oc3cccc(C(=O)O)n3)cc2)n(Cc2ccc(Cl)cc2)c1=O [Compound I-353] | 6 nM | 
30 | Cc1nc(Nc2cc(=O)n(CC(C)(C)C(=O)O)c(=O)n2Cc2ccc(Cl)cc2)ccc1Oc1ccc(F)cn1 [Compound I-365] | 5 nM | 
31 | COC(=O)CCCn1c(=O)cc(Nc2ccc(Oc3ccc(F)cn3)c(C)n2)n(Cc2ccc(Cl)cc2)c1=O [Compound I-360] | 6 nM | 
32 | O=C(NCC1CC1)c1c[nH]/c(=N\c2ccc(Oc3cccc(F)n3)cc2)n(Cc2ccc(Cl)cc2)c1=O [Compound I-407] | 68 nM | 
33 | CCn1c(=O)[nH]c(Nc2ccc(Oc3cccc(C(=O)O)n3)cc2)c(Cc2ccc(Cl)cc2)c1=O [Compound I-457] | 9 nM | 
34 | O=C1CCCN1c1c[nH]/c(=N\c2ccc(Oc3cccc(F)n3)cc2)n(Cc2ccc(Cl)cc2)c1=O [Compound I-333] | 149 nM | 
35 | O=C(Nc1c[nH]/c(=N\c2ccc(Oc3ccc(C(F)(F)F)nn3)cc2)n(Cc2ccc(Cl)cc2)c1=O)C1CCOCC1 [Compound I-435] | 3 nM | 
36 | NC(=O)c1noc(-c2c[nH]/c(=N\c3ccc(Oc4ccon4)cc3)n(Cc3ccc(Cl)cc3)c2=O)n1 [Compound I-441] | 69 nM | 
37 | O=c1c(Nc2ccon2)c[nH]/c(=N\c2ccc(Oc3ccc(F)cn3)cc2)n1Cc1ccc(Cl)cc1 [Compound I-318] | 27 nM | 
38 | Cc1nnc(-c2c[nH]/c(=N\c3ccc(Oc4cccc(C#N)n4)cc3)n(Cc3ccc(Cl)cc3)c2=O)o1 [Compound I-327] | 34 nM | 
39 | C[C@H](NC(=O)c1cn(Cc2ccc(Cl)cc2)c(Nc2ccc(Oc3cccc(F)n3)cc2)nc1=O)C(N)=O [Compound I-381] | 4 nM | 
40 | O=C(NCC1COCCO1)c1cn(Cc2ccc(Cl)cc2)c(Nc2ccc(Oc3cccc(F)n3)cc2)nc1=O (stereo not shown) [Compound I-379] | 96 nM | 
41 | Cc1noc(-c2c[nH]/c(=N\c3ccc(Oc4cccc(C(N)=O)n4)cc3)n(Cc3ccc(Cl)cc3)c2=O)n1 [Compound I-316] | 13 nM | 
42 | O=C(NCC(F)(F)F)c1c[nH]/c(=N\c2ccc(Oc3ccon3)cc2)n(Cc2ccc(Cl)cc2)c1=O [Compound I-452] | 98 nM | 
43 | COC(=O)C(C)(C)Cn1c(=O)cc(Nc2ccc(Oc3ccc(F)cn3)c(C)n2)n(C[C@H]2CC[C@H](C)CC2)c1=O [Compound I-444] | 9 nM | 
44 | CC(C)[C@H](NC(=O)c1cn(Cc2ccc(Cl)cc2)c(Nc2ccc(Oc3cccc(F)n3)cc2)nc1=O)C(N)=O [Compound I-380] | 4 nM | 
45 | O=C(O)c1cccc(Oc2ccc(/N=c3\[nH]cc(C(F)(F)F)c(=O)n3Cc3ccc(Cl)cc3)cc2)n1 [Compound I-472] | 15 nM | 
46 | CC(C)c1c[nH]/c(=N\c2ccc(Oc3cncc(C(=O)O)c3)cc2)n(Cc2ccc(Cl)cc2)c1=O [Compound I-401] | 12 nM | 
47 | NC(=O)CNC(=O)c1cn(Cc2ccc(Cl)cc2)c(Nc2ccc(Oc3cccc(F)n3)cc2)nc1=O [Compound I-431] | 44 nM | 
48 | CC(C)CNC(=O)c1cn(Cc2ccc(Cl)cc2)c(Nc2ccc(Oc3cccc(F)n3)cc2)nc1=O [Compound I-374] | 46 nM | 
49 | O=C(Nc1ccon1)c1cn(Cc2ccc(Cl)cc2)c(Nc2ccc(Oc3cccc(F)n3)cc2)nc1=O [Compound I-372] | 51 nM | 
50 | CCOC(=O)c1noc(-c2c[nH]/c(=N\c3ccc(Oc4ccon4)cc3)n(Cc3ccc(Cl)cc3)c2=O)n1 [Compound I-437] | 124 nM | 
51 | CCc1cn(Cc2ccc(Cl)cc2)c(Nc2ccc(Oc3ncc(C(=O)O)s3)cc2)nc1=O [Compound I-154] |  | IC50 (human P2X3 receptor [2]): 317 nM
52 | CCC(=O)Nc1c[nH]/c(=N\c2ccc(Oc3ccnc(C(N)=O)c3)cc2)n(Cc2ccc(Cl)cc2)c1=O [Compound I-106] |  | IC50 (human P2X3 receptor [2]): 7 nM
